Measured values reported in patent publication US9827229B2, “Small molecule securinine and norsecurinine analogs and their use in cancers, inflammatory diseases and infections” (INVENIO THERAPEUTICS INC., priority 2013, dated 2017).
Structures can show the parent of a compound that is named as a salt. Where two headings read alike, the source gives them in different places.

Legend:
HL60 cells [1] = test: Differentiation of HL60 cells (Dif50); format: cell-based, human; settings: Homo sapiens, no unit in head or cell (other cells of the column print uM)
Excerpt: The tested compounds and their respective results are produced in Table 1. Those skilled in the art will appreciate that combining the securinine and/or norsecurinine analogs with other differentiation inducing agents, such as all-trans retinoic acid, cytarabine and/or an anthracycline, would be of further benefit. Those skilled in the art will appreciate that inducing differentiation may further reduce oxidative damage due to lower presence of radical inducing enzymes (see, e.g., Yamada et al. J Biol Chem 259(5)3021-3025 (1984) and Weil et al., PNAS 84:2057-2061 (1987)).
(§1) The analogs were then tested and evaluated on the ability to affect differentiation and growth of HL60 cells.

HL60 cells [2] = test: Growth of HL60 cells (IC50); format: cell-based, human
Protocol: as §1

[3] = HL-60, HL-60 cells, differentiation, read-out: HL-60, Dif50
[4] = Homo sapiens, HL-60, HL-60 cells, growth, no unit in head or cell (other cells of the column print uM), read-out: HL-60, IC50
[5] = Homo sapiens, HL-60, read-out: HL-60, IC50, HL-60 cells, growth, no unit in head or cell (other cells of the column print uM)
[6] = HL-60, read-out: HL-60, Dif50, HL-60 cells, differentiation
[7] = read-out: HL-60, IC50, HL-60 cells, growth, no unit in head or cell (other cells of the column print uM)
[8] = Homo sapiens, HL-60, read-out: HL-60, IC50, HL-60 cells, growth

Row | Compound | IC50 (HL60 cells [2]; [4]) [µM] | further results
1 | CC(C)CS[C@H]1CC2=CC(=O)O[C@@]23C[C@@H]1N1CCCC[C@@H]13 (stereo in doubt) [INVS-MG-55B & 57B = 37B] |  | EC50 (HL60 cells [1]; [3]): 15 to 20 µM
2 | CC(C)CS[C@@H]1CC2=CC(=O)O[C@@]23C[C@@H]1N1CCCC[C@@H]13 (stereo in doubt) [INVS-MG-57A] |  | EC50 (HL60 cells [1]; [3]): 20 to 30 µM
3 | O=C1C=C2C(C#Cc3ccc[n+]([O-])c3)=CC3CC2(O1)C1CCCCN31 (stereo not shown) [INV-SZ-113-2] | 0.15 to 0.31 | 
4 | COC(OC)C1CCC2N1C1C=C(C#Cc3cccnc3)C3=CC(=O)OC32C1 (stereo not shown) [INV-SZ-114-1] | 0.07 to 0.15 | 
5 | COC(OC)C1CCC2N1C1C=C(C#Cc3ccc[n+]([O-])c3)C3=CC(=O)OC32C1 (stereo not shown) [INV-SZ-115-1] | 0.15 to 0.31 | 
6 | O=C1C=C2C(C#Cc3cccc[n+]3[O-])=CC3CC2(O1)C1CCCCN31 (stereo not shown) [INV-SZ-116-1] | 2.5 to 5 | 
7 | COC(OC)C1CCC2N1C1C=C(C#Cc3ccc(N(C)C)cc3)C3=CC(=O)OC32C1 (stereo not shown) [INV-SZ-117-3] | 0.03 to 0.07 | 
8 | O=C1C=C2C=CC3CC2(O1)C1=C(Br)CCCN13 (stereo not shown) [INV-SZ-118-2] |  | IC50 (HL60 cells [2]; [5]): 0.31 to 0.62 µM
9 | O=C1C=C2C(C#Cc3ccc(CO)cc3)=CC3CC2(O1)C1CCCCN31 (stereo not shown) [INV-SZ-120-1] | 0.07 to 0.15 | 
10 | COC(OC)C1CCC2N1C1C=C(C#Cc3ccccc3)C3=CC(=O)OC32C1 (stereo not shown) [INV-SZ-123-2] | 0.37 to 0.75 | 
11 | O=C1C=C2C3C=CCC2(O1)C1CCCCN1O3 (stereo not shown) [INV-SZ-125-1] | < 5 | 
12 | O=C1C=C2C=CC3CC2(O1)C1CCCCN1O3 (stereo not shown) [INV-SZ-125-2] | < 5 | 
13 | O=C1C=C2C3C=CCC2(O1)C1CCC=CN1O3 (stereo not shown) [INV-SZ-125-3] | < 5 | 
14 | CNCC#CC1=CC2CC3(OC(=O)C=C13)C1CCCCN21 (stereo not shown) [INV-SZ-129-1] | 2.5 to 5 | 
15 | O=CC1CCC2N1C1C=CC3=CC(=O)OC32C1 (stereo not shown) [INV-SZ-132-1] | 1.25 to 2.5 | 
16 | O=C1C=C2C=CC3CC2(O1)C1CCC(CO)N31 (stereo not shown) [INV-SZ-132-2] | 0.3 to 0.6 | 
17 | O=C1C=C2C(C#CCO)=CC3CC2(O1)C1CCCCN31 (stereo not shown) [INV-SZ-133-1] | 1.25 to 2.5 | 
18 | COC(OC)C1CCC2N1C1C=C(C#CCO)C3=CC(=O)OC32C1 (stereo not shown) [INV-SZ-136-1] | 0.15 to 0.31 | 
19 | CS(=O)(=O)NCC#CC1=CC2CC3(OC(=O)C=C13)C1CCCCN21 (stereo not shown) [INV-SZ-137-1] | 0.07 to 0.15 | 
20 | O=C1C=C2C(I)=CC3CC2(O1)C1CCC(CO)N31 (stereo not shown) [INV-SZ-140-1] | 0.07 to 0.15 | 
21 | COC(OC)C1CCC2N1C1C=C(C#CCNC(=O)CCl)C3=CC(=O)OC32C1 (stereo not shown) [INV-SZ-141-1] | 1.25 to 2.5 | 

Row | Compound | IC50 (HL60 cells [2]; [4]) [µM] | further results
22 | O=C1C=C2C(c3ccccc3)=C[C@@H]3C[C@@]2(O1)[C@H]1CCCCN31 [INVG-28-1 = INVS-MG-56B] |  | EC50 (HL60 cells [1]; [3]): > 30 µM
23 | COC(OC)[C@H]1CCC2N1[C@@H]1C=CC3=CC(=O)O[C@@]32C1 (stereo partly shown) [INVG-Z-27-4 = INVS-MG-52D] |  | EC50 (HL60 cells [1]; [6]): 3.25 to 5 µM
24 | O=C1C=C2CC(SC3CCCCC3)[C@@H]3C[C@@]2(O1)[C@H]1CCCCN31 (stereo partly shown) [INVS-MG-3B] |  | EC50 (HL60 cells [1]; [3]): 15 to 20 µM
25 | O=C1CC2(SCC(F)(F)F)CC(SCC(F)(F)F)[C@@H]3C[C@@]2(O1)[C@H]1CCCCN31 (stereo partly shown) [INVS-MG-5A] |  | EC50 (HL60 cells [1]; [6]): 5 to 7.5 µM
26 | O=C1C=C2C[C@H](SCC(F)(F)F)[C@@H]3C[C@@]2(O1)[C@H]1CCCCN31 [INVS-MG-5B] |  | EC50 (HL60 cells [1]; [3]): > 30 µM
27 | O=C1C=C2C(I)=C[C@@H]3C[C@@]2(O1)[C@H]1CCCCN31 [INVS-MG-82 = 12A HCl salt] |  | IC50 (HL60 cells [2]; [7]): > 2.5 µM
28 | O=C1C=C2C(I)=C[C@@H]3C[C@@]2(O1)[C@H]1CCCCN31 [INVS-MG-84] |  | IC50 (HL60 cells [2]; [7]): > 2.5 µM
29 | COC(OC)[C@H]1CC[C@H]2N1[C@@H]1C=C(I)C3=CC(=O)O[C@@]32C1 [INVS-MG-99-IVB-I] |  | IC50 (HL60 cells [2]; [5]): 0.31 to 0.625 µM
30 | COC(OC)[C@H]1CC[C@H]2N1[C@@H]1C=CC3=CC(=O)O[C@@]32C1 [INVS-MG-99-IVD-I] |  | IC50 (HL60 cells [2]; read-out: HL-60, IC50, HL-60 cells, growth): > 5 µM
31 | COC(OC)[C@H]1CC[C@H]2N1[C@@H]1C=CC3=CC(=O)O[C@@]32C1 [INVS-MG-99-IVD] |  | IC50 (HL60 cells [2]; [8]): < 5 µM
32 | COC(OC)[C@H]1CC[C@H]2N1[C@@H]1C=C(I)C3=CC(=O)O[C@@]32C1 [INVS-MG-99B = 52B] |  | IC50 (HL60 cells [2]; [5]): 0.156 to 0.31 µM
33 | COC(OC)[C@H]1CC[C@H]2N1[C@@H]1C=CC3=CC(=O)O[C@@]32C1 [INVS-MG-99D = 52D] |  | IC50 (HL60 cells [2]; [5]): 0.31 to 0.625 µM
34 | O=C1C=C2C(C#CCc3ccccc3)=C[C@@H]3C[C@@]2(O1)[C@H]1CCCCN31 [INVS-MG-108-IIB] | 0.31 to 0.625 | 
35 | CCCCCCCCC#CC1=C[C@@H]2C[C@@]3(OC(=O)C=C13)[C@H]1CCCCN21 [INVS-MG-118-IIB] | 2.5 to 5 | 
36 | O=C1C=C2C(C#CCCCCl)=C[C@@H]3C[C@@]2(O1)[C@H]1CCCCN31 [INVS-MG-119A] | 0.625 to 1.25 | 
37 | O=C1C=C2C(/C=C(\C#CCCCCl)CCCCl)=C[C@@H]3C[C@@]2(O1)[C@H]1CCCCN31 [INVS-MG-119B] | 1.25 to 2.5 | 
38 | O=C1C=C2C(C#Cc3cccnc3)=C[C@@H]3C[C@@]2(O1)[C@H]1CCCCN31 [INVS-MG-144B] | 0.31 to 0.625 | 
39 | CCN(CC)CC#CC1=C[C@@H]2C[C@@]3(OC(=O)C=C13)[C@H]1CCCCN21 [INVS-MG-145-V] |  | IC50 (HL60 cells [2]; [5]): 0.07 to 0.156 µM
40 | CN(C)c1ccc(C#CC2=C[C@@H]3C[C@@]4(OC(=O)C=C24)[C@H]2CCCCN32)cc1 [INVS-MG-146-IV] |  | IC50 (HL60 cells [2]; [5]): 0.07 to 0.156 µM
41 | O=C1C=C2C(C#CCSc3ccccc3)=C[C@@H]3C[C@@]2(O1)[C@H]1CCCCN31 [INVS-MG-147B] | 0.625 to 1.25 | 
42 | O=C1C=C2C(/C=C(\C#Cc3cc(C(F)(F)F)cc(C(F)(F)F)c3)c3cc(C(F)(F)F)cc(C(F)(F)F)c3)=C[C@@H]3C[C@@]2(O1)[C@H]1CCCCN31 [INVS-MG-149B] | 1.25 to 2.5 | 

Row | Compound | IC50 (HL60 cells [2]; [4]) [µM] | further results
43 | O=C1C=C2C(C#Cc3cc(C(F)(F)F)cc(C(F)(F)F)c3)=C[C@@H]3C[C@@]2(O1)[C@H]1CCCCN31 [INVS-MG-149B′] | 1.25 to 2.5 | 
44 | CCCN(CC#CC1=C[C@@H]2C[C@@]3(OC(=O)C=C13)[C@H]1CCCCN21)CCC [INVS-MG-152-III] |  | IC50 (HL60 cells [2]; HL-60 cells, growth, no unit in head or cell (other cells of the column print uM), read-out: HL-60, IC50): < 0.03 µM
45 | COc1ccc2cc(C#CC3=C[C@@H]4C[C@@]5(OC(=O)C=C35)[C@H]3CCCCN43)ccc2c1 [INVS-MG-157-III] | 0.07 to 0.156 | 
46 | O=C1C=C2C(C#Cc3cc4ccccc4c4ccccc34)=C[C@@H]3C[C@@]2(O1)[C@H]1CCCCN31 [INVS-MG-158-VI] |  | IC50 (HL60 cells [2]; [5]): 0.156 to 0.31 µM
47 | O=C1C=C2C(C#Cc3cc4ccccc4c4ccccc34)=C[C@@H]3C[C@@]2(O1)[C@H]1CCCCN31 [INVS-MG-158-V] |  | IC50 (HL60 cells [2]; [7]): < 5 µM
48 | CCCCC1C(/C=C/c2ccc(OC)cc2)C2=CC(=O)O[C@@]23C[C@@H]1N1CCCC[C@@H]13 (stereo partly shown) [INVS-MG-163-IIB] | < 10 | 
49 | O=C1C=C2C(C#Cc3ccc(-c4ccccc4)cc3)=C[C@@H]3C[C@@]2(O1)[C@H]1CCCCN31 [INVS-MG-169-III] | 0.07 to 0.156 | 
50 | O=C1C=C2C(C#Cc3ccc([N+](=O)[O-])cc3)=C[C@@H]3C[C@@]2(O1)[C@H]1CCCCN31 [INVS-MG-176B] | 0.31 to 0.625 | 
51 | CCCCN(CC#CC1=C[C@@H]2C[C@@]3(OC(=O)C=C13)[C@H]1CCCCN21)CCCC [INVS-MG-179B] | 0.156 to 0.31 | 
52 | [N-]=[N+]=Nc1ccc(C#CC2=C[C@@H]3C[C@@]4(OC(=O)C=C24)[C@H]2CCCCN32)cc1 [INVS-MG-193-III] | 0.156 to 0.31 | 
53 | C[Si](C)(C)C#CC1=C[C@@H]2C[C@@]3(OC(=O)C=C13)[C@H]1CCCCN21 [INVS-MG-207-IIIA] |  | IC50 (HL60 cells [2]; [5]): 1.25 to 2.5 µM
54 | C#CC1=C[C@@H]2C[C@@]3(OC(=O)C=C13)[C@H]1CCCCN21 [INVS-MG-207A] | 0.07 to 0.156 | 
55 | COC(OC)[C@H]1CC[C@H]2N1[C@@H]1C=C(C#Cc3ccc(N)cc3)C3=CC(=O)O[C@@]32C1 [INVS-MG-219A] | 0.625 to 1.25 | 
56 | COC(OC)[C@H]1CC[C@H]2N1[C@@H]1C=C(C#Cc3cc4ccccc4c4ccccc34)C3=CC(=O)O[C@@]32C1 [INVS-MG-220B] |  | IC50 (HL60 cells [2]; [5]): 0.156 µM
57 | COC(OC)[C@@H]1CC[C@H]2N1[C@@H]1C=C(C#Cc3cc4ccccc4c4ccccc34)C3=CC(=O)O[C@@]32C1 [INVS-MG-220C] |  | IC50 (HL60 cells [2]; [8]): > 5 µM
58 | COc1cccc(C#CC2=C[C@@H]3C[C@@]4(OC(=O)C=C24)[C@H]2CC[C@H](C(OC)OC)N32)c1 [INVS-MG-221B] | 0.625 to 1.25 | 
59 | COc1cc(C#CC2=C[C@@H]3C[C@@]4(OC(=O)C=C24)[C@H]2CC[C@H](C(OC)OC)N32)cc(OC)c1 [INVS-MG-222B] | < 0.03 | 
60 | COc1ccc(C#CC2=C[C@@H]3C[C@@]4(OC(=O)C=C24)[C@H]2CC[C@H](C(OC)OC)N32)cc1OC [INVS-MG-223B] | 0.156 to 0.31 | 
61 | COC(OC)[C@H]1CC[C@H]2N1[C@@H]1C=C(C#Cc3ccc(CO)cc3)C3=CC(=O)O[C@@]32C1 [INVS-MG-224A] | 0.156 to 0.31 | 
